Source: US6794396B2, “Substituted pyridines useful for inhibiting cholesteryl ester transfer protein activity” (Pharmacia Corporation, priority 1998, dated 2004)
Where two headings read alike, the source gives them in different places.

Biological target: T1, CETP (Homo sapiens, UniProt P11597)
T1 construct: made in house; host or cells: CHO cells (serum-free conditioned medium)
T1 sequence (P11597 18-493): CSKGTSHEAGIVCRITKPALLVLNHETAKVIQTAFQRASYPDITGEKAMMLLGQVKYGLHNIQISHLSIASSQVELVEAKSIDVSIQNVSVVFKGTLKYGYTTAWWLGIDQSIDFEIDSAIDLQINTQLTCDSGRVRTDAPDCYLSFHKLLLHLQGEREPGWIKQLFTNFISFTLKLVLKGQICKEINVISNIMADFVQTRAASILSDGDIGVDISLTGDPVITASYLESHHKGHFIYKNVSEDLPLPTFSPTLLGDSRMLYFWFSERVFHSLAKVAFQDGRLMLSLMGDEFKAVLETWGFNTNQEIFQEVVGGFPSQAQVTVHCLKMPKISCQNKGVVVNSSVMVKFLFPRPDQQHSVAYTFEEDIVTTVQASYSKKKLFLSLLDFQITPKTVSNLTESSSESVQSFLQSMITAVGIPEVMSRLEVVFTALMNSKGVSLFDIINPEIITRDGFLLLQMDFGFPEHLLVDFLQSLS
Test: CETP activity in vitro: transfer of [3H]CE from HDL donor to LDL acceptor particles
Type: biochemical
Conditions: 50% inhibition of [3H]CE transfer from HDL to LDL, 2 hours at 37° C.
Procedure: The ability of compounds to inhibit CETP were assessed using an in vitro assay that measured the rate of transfer of radiolabeled cholesteryl ester ([^3H]CE) from HDL donor particles to LDL acceptor particles. Details of the assay are provided by Glenn et al. (“Quantification of Cholesteryl Ester Transfer Protein (CETP): A) CETP Activity and B) Immunochemical Assay of CETP Protein,” Meth. Enzymol., Glenn and Melton (Meth. Enzymol., 263, 339-351 (1996), which is incorporated herein by reference). CETP was obtained from the serum-free conditioned medium of CHO cells transfected with a cDNA for CETP (Wang, S. et al. J. Biol Chem. 267, 17487-17490 (1992), which is incorporated herein by reference).
To measure CETP activity, [^3H]CE-labeled HDL, LDL, CETP and assay buffer (50 mM tris(hydroxymethyl)amino-methane, pH 7.4; 150 mM sodium chloride; 2 mM ethylenediamine-tetraacetic acid; 1% bovine serum albumin) were incubated in a volume of 200 μl, for 2 hours at 37° C. in 96 well plates. LDL was differentially precipitated by the addition of 50 μl of 1% (w/v) dextran sulfate/0.5 M magnesium chloride, mixed by vortex, and incubated at room temperature for 10 minutes The solution (200μl) was transferred to a filter plate (Millipore). After filtration, the radioactivity present in the precipitated LDL was measured by liquid scintillation counting.
This value was defined as the IC50.

| IC50 (read-out: IC50(μm)) [µM] | Structure (SMILES) | IC50 (IC50(μm)) [µM] |
| --- | --- | --- |
| – | COC(=O)c1c(C(F)F)nc(C(F)(F)F)c(N=S=O)c1CC(C)C [Compound 1] | 2 |
| – | CCOC(=O)c1c(C(F)(F)F)nc(C(F)F)c(C(=O)OC)c1S [Compound 2, 3-Methyl 5-Ethyl 2-(Difluoromethyl)-4-mercapto-6-(trifluoromethyl)-3,5-pyridinedicarboxylate] | 3 |
| 9 | COC(=O)c1c(C(F)F)nc(C(F)(F)F)c(CSc2ccc(C(C)(C)C)cc2)c1CC(C)C [Compound 3, Methyl 5-(4-t-Butylphenylthiomethyl)-2-(difluoromethyl)-4-(2-methylpropyl)-6-(trifluoromethyl)-3-pyridinecarboxylate] | – |
| – | CCCCCCCCCCCCCCCC(=O)Sc1c(C(F)(F)F)nc(C(F)F)c(C(=O)OC)c1CC(C)C [Compound 5, Methyl 2-(Difluoromethyl)-4-(2-methylpropyl)-5-(palmitoylthio)-6-(trifluoromethyl)-3-pyridinecarboxylate] | 8 |
| – | COC(=O)Sc1c(C(F)(F)F)nc(C(F)F)c(C(=O)OC)c1CC(C)C [Compound 6, Methyl 2-(Difluoromethyl)-4-(2-methylpropyl)-5-[(methoxycarbonyl)thio]-6-(trifluoromethyl)-3-pyridinecarboxylate] | 8 |
| – | CC(C)Cc1c(C(=O)OC(C)(C)C)c(C(F)F)nc(C(F)(F)F)c1C(=O)OC(C)(C)C [Compound 9, Di-t-Butyl 2-(difluoromethyl)-4-(2-methylpropyl)-6-(trifluoromethyl)-3,5-pyridinedicarboxylate] | 20 |
| – | COC(=O)c1c(C(F)(F)F)nc(C(F)(F)F)c(C2=NCCS2)c1CC(C)C [Compound 12, Methyl 2,6-Bis(trifluoromethyl)-5-(4,5-dihydro-2-thiazoly)-4-(2-methylpropyl)-3-pyridinecarboxylate] | 25 |
| – | COC(=O)c1c(C(F)F)nc(C(F)(F)F)c(C(=O)SC(C)C)c1C1CCC1 [Compound 14, Methyl 2-(Difluoromethyl)-5-[(i-propylthio)carbonyl]-4-(cyclobutyl)-6-(trifluoromethyl)-3-pyridinecarboxylate] | 30 |
| – | COC(=O)c1c(C(F)F)nc(C(F)(F)F)c(N=C(CBr)OC)c1CC(C)C [Compound 16] | 30 |
| 35 | COC(=O)c1c(C(F)F)nc(C(F)(F)F)c(N=C=S)c1CC(C)C [Compound 18] | – |
| – | COC(=O)c1c(C(F)F)nc(C(F)(F)F)c(C#C[Si](C)(C)C)c1CC(C)C [Compound 19, Methyl 2-(Difluoromethyl)-4-(2-methylpropyl)-6-(trifluoromethyl)-5-[(trimethylsilyl)ethynyl]-3-pyridinedicarboxylate] | 35 |
| – | CCSC(C)c1c(C(F)(F)F)nc(C(F)F)c(C(=O)OC)c1CC1CC1 (stereo not drawn) [Compound 21] | 40 |
| 40 | CCOC(=O)c1c(C(F)F)nc(C(F)(F)F)c(C(=O)OCC)c1SC1CCCC1 [Compound 22, Diethyl 2-(Difluoromethyl)-4-(cyclopentylthio)-6-(trifluoromethyl)-3,5-pyridinedicarboxylate] | – |
| 40 | CCOC(=O)c1c(Sc2ccccc2)cc(C(F)(F)F)nc1C(F)(F)F [Compound 23] | – |
| 40 | COC(=O)c1c(C(F)F)nc(C(F)(F)F)c(N=C(OC)SC)c1CC(C)C [Compound 27, Methyl 2-(Difluoromethyl)-5-{[methoxy (methylthio)methylene]amino)-4-(2-methylpropyl)-6-(trifluoromethyl)-3-pyridinecarboxylate] | – |
| – | COC(=O)c1c(C(F)F)nc(C(F)(F)F)c(N=COCC2CO2)c1CC(C)C (stereo not drawn) [Compound 30] | 40 |

| IC50 (read-out: IC50(μm)) [µM] | Structure (SMILES) | IC50 (IC50(μm)) [µM] |
| --- | --- | --- |
| 45 | COC(=O)c1c(C(F)F)nc(C(F)(F)F)c(CI)c1CC(C)C [Compound 32, Methyl 2-(Difluoromethyl)-5-(iodomethyl)-4-(2-methylpropyl)-6-(trifluoromethyl)-3-pyridinecarboxylate] | – |
| – | COC(=O)c1c(C(F)F)nc(C(F)(F)F)c(SCSC)c1CC(C)C [Compound 33, Methyl 2-(Difluoromethyl)-4-(2-methylpropyl)-5-(methylthiomethylthio)-6-(trifluoromethyl)-3-pyridinecarboxylate] | 45 |
| 45 | COC(=O)c1c(C(F)F)nc(C(F)(F)F)c(C(OC)c2ccns2)c1CC(C)C (stereo not drawn) [Compound 34, Methyl 2-(Difluoromethyl)-5-[(methoxy)isothiazol-5-ylmethyl]-4-(2-methylpropyl)-6-(trifluoromethyl)-3-pyridinecarboxylate] | – |
| – | COC=C(Br)c1c(C(F)(F)F)nc(C(F)F)c(C(=O)OC)c1CC1CC1 [Compound 35, Methyl 5-(1-Bromo-2-methoxyethenyl)-4-(cyclopropylmethyl)-2-(difluoromethyl)-6-(trifluoromethyl)-3-pyridinecarboxylate] | 45 |
| – | CCOC(=O)c1c(C(F)(F)F)nc(C(F)(F)F)c(C(=O)OCC)c1CC(C)C [Compound 36, Diethyl 2,6-Bis(trifluoromethyl)-4-(2-methylpropyl)-3,5-pyridinedicarboxylate] | 45 |
| 45 | COC(=O)c1c(OCc2ccccc2)cc(C(F)(F)F)nc1C(F)(F)F [Compound 37, Methyl 2,6-bis(Trifluoromethyl)-4-(benzyloxy)-3-pyridinecarboxylate] | – |
| – | CCOC(=O)c1c(C(F)F)nc(C(F)(F)F)c(C(=O)OCC)c1C1CCCCC1 [Compound 38] | 50 |
| – | CCOC(=O)c1c(C(F)F)nc(C(F)(F)F)c(C(=O)OCC)c1SC(C)(C)C [Compound 39, Diethyl 2-(Difluoromethyl)-4-(t-butylthio)-6-(trifluoromethyl)-3,5-pyridine-dicarboxylate] | 50 |
| 50 | COC(=O)c1c(C(F)F)nc(C(F)(F)F)c(COC(=O)c2ccccc2)c1CC1CC1 [Compound 41, Methyl 5-(Benzoyloxymethyl)-2-(difluoromethyl)4-(cyclopropylmethyl)-6-(trifluoromethyl)-3-pyridinecarboxylate] | – |
| – | COC(=O)c1c(C(F)F)nc(C(F)(F)F)c(N=C(SC)SC)c1CC(C)C [Compound 42, Methyl 5-{[Bis(methylthio)methylene]amino}-2-(difluoromethyl)-4-(2-methylpropyl)-6-(trifluoromethyl)-3-pyridinecarboxylate] | 50 |
| – | COC(=O)c1c(C(F)F)nc(C(F)(F)F)c(C(=O)OC)c1CCC(C)C [Compound 49] | 50 |
| 50 | CCOC(=O)c1c(C(F)(F)F)nc(C(F)(F)F)c(C(=O)OC)c1OCC [Compound 52] | – |
| 50 | CCOC(=O)c1c(C(F)(F)F)nc(C(F)(F)F)c(C)c1OC(C)C [Compound 53, Ethyl 2,6-Bis(trifluoromethyl)-4-(isopropoxy)-5-methyl-3-pyridinecarboxylate] | – |
| 50 | COC(=O)c1c(C(F)(F)F)ncc(C(=O)c2cnc(C(F)(F)F)c(C(=O)OC)c2OC(C)C)c1OC(C)C [Compound 54] | – |
| – | COC(=O)c1c(C(F)F)nc(C(F)(F)F)c(C(=NC(C)C)SC)c1CC(C)C [Compound 58, Methyl 2-(difluoromethyl)-5-{[isopropylimino(methylthio)methyl]}-4-(2-methylpropyl)-6-(trifluoromethyl)-3-pyridinecarboxylate] | 55 |
| – | COC(=O)c1c(C(F)F)nc(C(F)(F)F)c(C2OCCCO2)c1CC(C)C [Compound 59, Methyl 2-(Difluoromethyl)-5-(1,3-dioxan-2-yl)-4-(2-methylpropyl)-6-(trifluoromethyl)-3-pyridinecarboxylate] | 55 |

| Structure (SMILES) | IC50 (read-out: IC50(μm)) [µM] | IC50 (IC50(μm)) [µM] |
| --- | --- | --- |
| CCOC(=O)c1c(C(F)(F)F)nc(C(F)(F)F)c(C)c1Sc1ccc(C(C)C)cc1 [Compound 11, Ethyl 2,6-Bis(trifluoromethyl)-4-[4-(isopropylphenyl)thio]-5-methyl-3-pyridinecarboxylate] | 25 | – |
| COC(=O)c1c(C(F)F)nc(C(F)(F)F)c(C(O)c2ccco2)c1CC(C)C (stereo not drawn) [Compound 13, Methyl 2-(difluoromethyl)-5-(1-hydroxyl-furylmethyl)-4-(2-methylpropyl)-6-(trifluoromethyl)-3-pyridinecarboxylate] | 30 | – |
| COC(=O)c1cc(CSC(=S)N(C)C)c(C(F)(F)F)nc1C(F)F [Compound 43, Methyl 2-(Difluoromethyl)-5-[(dimethylaminothionothio)methyl]-6-(trifluoromethyl)-3-pyridinecarboxylate] | 50 | – |
| CCOC(=O)c1c(C(F)(F)F)nc(C(F)F)c(NC(=O)Nc2c(C(F)F)nc(C(F)(F)F)c(C(=O)OCC)c2CC)c1CC [Compound 48] | 50 | – |
